Assay results reported in ChEMBL document CHEMBL1201862, “PubChem BioAssay data set” (2004).
“And” between values parts separate entries of the source, which are not always exact repeats. Equal entries are not always repeated. The source made the active and inactive calls.

How the values were obtained:
[1] = biological target: T1, Sentrin-specific protease 8 (Homo sapiens, UniProt Q96LD8); type: functional;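 note: luminescence read-out of SENP8 inhibition, dose-response confirmation following an ultra-high-throughput screen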
T1 sequence (Q96LD8 whole entry): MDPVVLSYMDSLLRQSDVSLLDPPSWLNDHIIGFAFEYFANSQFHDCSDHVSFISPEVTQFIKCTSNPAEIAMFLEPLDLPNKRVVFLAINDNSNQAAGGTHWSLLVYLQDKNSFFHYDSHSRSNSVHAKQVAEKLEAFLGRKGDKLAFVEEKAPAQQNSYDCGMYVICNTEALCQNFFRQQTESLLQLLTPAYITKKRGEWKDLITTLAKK

[2] = biological target: T2, Apoptotic protease-activating factor 1 (Homo sapiens, UniProt O14727); type: functional
T2 sequence (O14727 whole entry): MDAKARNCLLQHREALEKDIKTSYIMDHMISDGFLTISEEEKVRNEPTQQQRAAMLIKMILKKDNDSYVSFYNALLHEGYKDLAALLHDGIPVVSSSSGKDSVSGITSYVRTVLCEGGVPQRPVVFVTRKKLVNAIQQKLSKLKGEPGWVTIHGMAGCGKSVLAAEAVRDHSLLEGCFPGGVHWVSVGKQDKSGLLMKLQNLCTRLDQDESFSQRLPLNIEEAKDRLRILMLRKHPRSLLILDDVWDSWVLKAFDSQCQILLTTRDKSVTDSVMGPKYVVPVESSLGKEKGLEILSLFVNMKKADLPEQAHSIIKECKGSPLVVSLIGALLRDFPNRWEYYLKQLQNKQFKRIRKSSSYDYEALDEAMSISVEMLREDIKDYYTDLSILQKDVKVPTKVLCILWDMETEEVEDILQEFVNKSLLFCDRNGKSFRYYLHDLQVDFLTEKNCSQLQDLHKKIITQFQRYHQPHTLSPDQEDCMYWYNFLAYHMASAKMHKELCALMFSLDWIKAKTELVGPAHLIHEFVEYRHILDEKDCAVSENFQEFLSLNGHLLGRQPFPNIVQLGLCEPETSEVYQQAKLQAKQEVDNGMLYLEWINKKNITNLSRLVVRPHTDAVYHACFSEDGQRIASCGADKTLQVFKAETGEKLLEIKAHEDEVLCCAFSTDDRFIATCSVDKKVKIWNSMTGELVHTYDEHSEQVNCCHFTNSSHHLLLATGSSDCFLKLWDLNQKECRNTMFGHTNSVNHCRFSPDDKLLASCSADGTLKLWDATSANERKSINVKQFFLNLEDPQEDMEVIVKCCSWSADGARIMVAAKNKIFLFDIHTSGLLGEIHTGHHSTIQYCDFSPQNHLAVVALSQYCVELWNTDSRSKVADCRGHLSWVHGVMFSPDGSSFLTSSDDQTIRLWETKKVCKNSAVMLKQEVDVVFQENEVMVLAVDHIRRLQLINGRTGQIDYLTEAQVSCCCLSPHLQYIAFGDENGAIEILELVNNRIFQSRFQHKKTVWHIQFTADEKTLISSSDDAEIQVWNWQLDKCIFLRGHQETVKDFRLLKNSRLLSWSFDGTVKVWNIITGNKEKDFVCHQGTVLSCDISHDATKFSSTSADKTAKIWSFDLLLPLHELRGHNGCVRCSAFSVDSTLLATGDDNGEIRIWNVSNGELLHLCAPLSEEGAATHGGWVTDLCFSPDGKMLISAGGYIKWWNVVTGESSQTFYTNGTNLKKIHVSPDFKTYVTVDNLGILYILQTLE

[3] = biological target: T3, Mannose-6-phosphate isomerase (Homo sapiens, UniProt P34949); assay: PMI enzyme inhibitors, confirmation, biochemical, fluorescence intensity (AID 1535)
T3 sequence (P34949 whole entry): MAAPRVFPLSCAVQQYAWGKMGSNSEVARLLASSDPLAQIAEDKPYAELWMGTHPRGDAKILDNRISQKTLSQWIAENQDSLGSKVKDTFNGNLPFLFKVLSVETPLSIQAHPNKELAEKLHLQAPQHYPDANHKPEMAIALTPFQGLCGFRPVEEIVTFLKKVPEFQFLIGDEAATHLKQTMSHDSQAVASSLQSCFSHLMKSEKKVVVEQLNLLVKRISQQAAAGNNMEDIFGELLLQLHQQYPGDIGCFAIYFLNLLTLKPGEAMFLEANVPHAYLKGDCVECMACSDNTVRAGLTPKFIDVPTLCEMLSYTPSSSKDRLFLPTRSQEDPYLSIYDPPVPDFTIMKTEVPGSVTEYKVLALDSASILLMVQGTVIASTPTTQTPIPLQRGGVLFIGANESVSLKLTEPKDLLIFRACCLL

[4] = biological target: DNA dC->dU-editing enzyme APOBEC-3A (Homo sapiens, UniProt P31941); assay: APOBEC3A DNA deaminase inhibitors, dose response, biochemical (AID 504722); type: functional
[5] = biological target: Protein kinase C delta type (Homo sapiens, UniProt Q05655); type: functional
[6] = biological target: Serine/threonine-protein kinase D3 (Homo sapiens, UniProt O94806); type: functional;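 note: determined within a kinase panel screen, with PRKCN as the panel member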
[7] = biological target: Serine/threonine-protein kinase Chk2 (Homo sapiens, UniProt O96017); type: functional;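 note: CHEK2 entry within a kinome-wide screening panel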
[8] = biological target: Casein kinase I isoform alpha (Homo sapiens, UniProt P48729); type: functional
[9] = biological target: Mitogen-activated protein kinase kinase kinase 20 (Homo sapiens, UniProt Q9NYL2); type: functional
[10] = biological target: Glycogen synthase kinase-3 alpha (Homo sapiens, UniProt P49840); type: functional;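 note: GSK3A result taken from a broad kinome-wide kinase panel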
[11] = biological target: Receptor tyrosine-protein kinase erbB-2 (Homo sapiens, UniProt P04626); assay: Navigating the Kinome. Panel member name: ERBB2; type: functional
[12] = biological target: Misshapen-like kinase 1 (Homo sapiens, UniProt Q8N4C8); type: functional;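 note: kinome panel screen with MINK as the panel member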
[13] = biological target: Interleukin-1 receptor-associated kinase 1 (Homo sapiens, UniProt P51617); type: functional;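 note: IRAK1 tested as one member of a kinome panel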
[14] = biological target: Serine/threonine-protein kinase PLK1 (Homo sapiens, UniProt P53350); type: functional;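 note: PLK1 measured as one member of a kinome-wide profiling panel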
[15] = biological target: Dual specificity protein kinase CLK4 (Homo sapiens, UniProt Q9HAZ1); type: functional
Dual specificity protein kinase CLK4, sequence (Q9HAZ1 whole entry): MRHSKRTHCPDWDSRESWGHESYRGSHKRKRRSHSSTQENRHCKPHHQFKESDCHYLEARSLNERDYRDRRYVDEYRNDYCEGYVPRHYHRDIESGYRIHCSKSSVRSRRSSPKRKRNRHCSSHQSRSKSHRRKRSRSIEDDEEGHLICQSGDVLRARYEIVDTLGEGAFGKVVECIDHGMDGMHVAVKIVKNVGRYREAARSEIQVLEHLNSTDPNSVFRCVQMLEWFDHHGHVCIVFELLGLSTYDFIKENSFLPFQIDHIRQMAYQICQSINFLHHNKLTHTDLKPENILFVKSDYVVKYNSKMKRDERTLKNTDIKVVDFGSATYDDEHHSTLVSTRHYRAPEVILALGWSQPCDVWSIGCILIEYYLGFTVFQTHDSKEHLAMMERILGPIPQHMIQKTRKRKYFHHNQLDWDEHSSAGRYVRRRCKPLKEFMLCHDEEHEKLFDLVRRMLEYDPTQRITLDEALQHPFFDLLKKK

Interleukin-1 receptor-associated kinase 1, sequence (P51617 whole entry): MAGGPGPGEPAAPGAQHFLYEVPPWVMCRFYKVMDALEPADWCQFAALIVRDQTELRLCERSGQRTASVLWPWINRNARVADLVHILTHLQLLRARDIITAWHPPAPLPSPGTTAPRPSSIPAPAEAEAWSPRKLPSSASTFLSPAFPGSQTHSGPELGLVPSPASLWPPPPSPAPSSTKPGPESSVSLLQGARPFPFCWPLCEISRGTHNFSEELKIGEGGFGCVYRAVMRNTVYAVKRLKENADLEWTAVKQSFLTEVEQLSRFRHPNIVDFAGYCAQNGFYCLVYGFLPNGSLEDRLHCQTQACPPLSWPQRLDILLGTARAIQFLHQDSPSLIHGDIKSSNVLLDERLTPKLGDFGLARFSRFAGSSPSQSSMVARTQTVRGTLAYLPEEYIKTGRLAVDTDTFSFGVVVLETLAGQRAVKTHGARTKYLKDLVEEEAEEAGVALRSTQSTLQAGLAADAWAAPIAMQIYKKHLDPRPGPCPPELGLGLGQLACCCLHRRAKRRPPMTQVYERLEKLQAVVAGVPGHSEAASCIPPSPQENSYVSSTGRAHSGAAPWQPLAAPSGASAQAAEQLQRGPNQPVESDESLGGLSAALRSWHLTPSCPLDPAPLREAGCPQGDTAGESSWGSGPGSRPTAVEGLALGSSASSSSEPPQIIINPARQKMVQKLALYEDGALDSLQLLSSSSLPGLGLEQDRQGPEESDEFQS
Mitogen-activated protein kinase kinase kinase 20, sequence (Q9NYL2 whole entry): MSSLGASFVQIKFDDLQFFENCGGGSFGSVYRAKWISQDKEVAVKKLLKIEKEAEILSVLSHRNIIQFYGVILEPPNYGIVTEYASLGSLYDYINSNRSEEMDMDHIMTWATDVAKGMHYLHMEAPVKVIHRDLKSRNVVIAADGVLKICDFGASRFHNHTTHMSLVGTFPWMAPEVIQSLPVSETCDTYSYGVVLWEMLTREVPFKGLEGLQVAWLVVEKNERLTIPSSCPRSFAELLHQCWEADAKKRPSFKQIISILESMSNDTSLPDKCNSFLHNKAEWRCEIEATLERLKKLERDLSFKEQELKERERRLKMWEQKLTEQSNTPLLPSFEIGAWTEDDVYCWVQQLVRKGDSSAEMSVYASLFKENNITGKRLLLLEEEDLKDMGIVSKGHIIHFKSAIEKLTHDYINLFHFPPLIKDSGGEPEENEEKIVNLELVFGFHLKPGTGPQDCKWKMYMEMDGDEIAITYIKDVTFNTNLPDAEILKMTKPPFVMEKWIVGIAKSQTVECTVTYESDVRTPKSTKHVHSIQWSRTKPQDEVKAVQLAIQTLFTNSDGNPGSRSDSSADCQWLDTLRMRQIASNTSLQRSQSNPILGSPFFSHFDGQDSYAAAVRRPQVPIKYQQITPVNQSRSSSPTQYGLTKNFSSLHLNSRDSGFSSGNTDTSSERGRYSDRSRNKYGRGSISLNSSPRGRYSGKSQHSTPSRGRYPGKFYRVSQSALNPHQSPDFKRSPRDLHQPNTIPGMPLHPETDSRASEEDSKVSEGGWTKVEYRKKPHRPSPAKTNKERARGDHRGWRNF
Glycogen synthase kinase-3 alpha, sequence (P49840 whole entry): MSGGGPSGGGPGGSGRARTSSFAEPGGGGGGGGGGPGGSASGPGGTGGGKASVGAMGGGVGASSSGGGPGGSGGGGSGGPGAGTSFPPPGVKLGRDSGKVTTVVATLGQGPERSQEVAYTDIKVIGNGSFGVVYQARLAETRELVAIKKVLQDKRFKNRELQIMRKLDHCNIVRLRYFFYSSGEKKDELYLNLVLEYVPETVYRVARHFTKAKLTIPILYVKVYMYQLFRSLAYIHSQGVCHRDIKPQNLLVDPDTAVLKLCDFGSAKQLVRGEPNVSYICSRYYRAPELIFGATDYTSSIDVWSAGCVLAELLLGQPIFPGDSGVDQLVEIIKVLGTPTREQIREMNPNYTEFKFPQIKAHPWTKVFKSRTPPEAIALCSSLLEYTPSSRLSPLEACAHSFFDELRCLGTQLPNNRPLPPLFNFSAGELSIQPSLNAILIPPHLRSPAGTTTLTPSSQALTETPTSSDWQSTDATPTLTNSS
Misshapen-like kinase 1, sequence (Q8N4C8 whole entry): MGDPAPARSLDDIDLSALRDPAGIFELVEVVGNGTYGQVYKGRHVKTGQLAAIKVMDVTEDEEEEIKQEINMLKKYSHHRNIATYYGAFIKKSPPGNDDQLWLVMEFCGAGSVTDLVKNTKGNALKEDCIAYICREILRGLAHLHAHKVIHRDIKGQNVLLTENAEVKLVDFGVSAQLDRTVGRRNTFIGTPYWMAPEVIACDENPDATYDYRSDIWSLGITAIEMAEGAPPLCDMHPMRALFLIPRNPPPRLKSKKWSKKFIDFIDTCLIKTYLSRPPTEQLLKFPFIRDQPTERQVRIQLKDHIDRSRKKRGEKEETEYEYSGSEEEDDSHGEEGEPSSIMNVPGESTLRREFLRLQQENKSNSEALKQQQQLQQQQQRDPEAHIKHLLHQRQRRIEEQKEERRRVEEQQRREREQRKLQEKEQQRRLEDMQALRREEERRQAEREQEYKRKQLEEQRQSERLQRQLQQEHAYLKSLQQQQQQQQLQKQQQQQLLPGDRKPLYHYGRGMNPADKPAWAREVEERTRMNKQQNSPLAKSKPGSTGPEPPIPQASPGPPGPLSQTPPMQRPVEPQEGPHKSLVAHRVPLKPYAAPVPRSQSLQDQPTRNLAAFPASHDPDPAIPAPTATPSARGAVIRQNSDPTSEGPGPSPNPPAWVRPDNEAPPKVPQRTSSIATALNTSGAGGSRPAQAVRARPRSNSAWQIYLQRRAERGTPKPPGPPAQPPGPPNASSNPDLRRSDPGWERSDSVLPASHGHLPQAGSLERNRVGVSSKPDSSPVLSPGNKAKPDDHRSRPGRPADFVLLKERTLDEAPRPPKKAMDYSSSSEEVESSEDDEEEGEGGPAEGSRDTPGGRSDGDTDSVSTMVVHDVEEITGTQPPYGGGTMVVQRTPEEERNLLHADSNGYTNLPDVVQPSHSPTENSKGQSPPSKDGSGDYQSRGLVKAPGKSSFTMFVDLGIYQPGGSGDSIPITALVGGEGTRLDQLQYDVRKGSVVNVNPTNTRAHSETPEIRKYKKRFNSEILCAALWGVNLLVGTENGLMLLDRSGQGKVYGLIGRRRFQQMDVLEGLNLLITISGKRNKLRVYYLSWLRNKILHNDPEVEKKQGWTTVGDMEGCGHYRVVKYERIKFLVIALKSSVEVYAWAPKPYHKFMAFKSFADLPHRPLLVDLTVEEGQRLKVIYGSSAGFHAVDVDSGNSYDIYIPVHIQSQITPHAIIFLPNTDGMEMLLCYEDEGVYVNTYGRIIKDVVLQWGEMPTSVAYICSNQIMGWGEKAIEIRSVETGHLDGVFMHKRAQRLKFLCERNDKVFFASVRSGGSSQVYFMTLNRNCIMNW
Receptor tyrosine-protein kinase erbB-2, sequence (P04626 whole entry): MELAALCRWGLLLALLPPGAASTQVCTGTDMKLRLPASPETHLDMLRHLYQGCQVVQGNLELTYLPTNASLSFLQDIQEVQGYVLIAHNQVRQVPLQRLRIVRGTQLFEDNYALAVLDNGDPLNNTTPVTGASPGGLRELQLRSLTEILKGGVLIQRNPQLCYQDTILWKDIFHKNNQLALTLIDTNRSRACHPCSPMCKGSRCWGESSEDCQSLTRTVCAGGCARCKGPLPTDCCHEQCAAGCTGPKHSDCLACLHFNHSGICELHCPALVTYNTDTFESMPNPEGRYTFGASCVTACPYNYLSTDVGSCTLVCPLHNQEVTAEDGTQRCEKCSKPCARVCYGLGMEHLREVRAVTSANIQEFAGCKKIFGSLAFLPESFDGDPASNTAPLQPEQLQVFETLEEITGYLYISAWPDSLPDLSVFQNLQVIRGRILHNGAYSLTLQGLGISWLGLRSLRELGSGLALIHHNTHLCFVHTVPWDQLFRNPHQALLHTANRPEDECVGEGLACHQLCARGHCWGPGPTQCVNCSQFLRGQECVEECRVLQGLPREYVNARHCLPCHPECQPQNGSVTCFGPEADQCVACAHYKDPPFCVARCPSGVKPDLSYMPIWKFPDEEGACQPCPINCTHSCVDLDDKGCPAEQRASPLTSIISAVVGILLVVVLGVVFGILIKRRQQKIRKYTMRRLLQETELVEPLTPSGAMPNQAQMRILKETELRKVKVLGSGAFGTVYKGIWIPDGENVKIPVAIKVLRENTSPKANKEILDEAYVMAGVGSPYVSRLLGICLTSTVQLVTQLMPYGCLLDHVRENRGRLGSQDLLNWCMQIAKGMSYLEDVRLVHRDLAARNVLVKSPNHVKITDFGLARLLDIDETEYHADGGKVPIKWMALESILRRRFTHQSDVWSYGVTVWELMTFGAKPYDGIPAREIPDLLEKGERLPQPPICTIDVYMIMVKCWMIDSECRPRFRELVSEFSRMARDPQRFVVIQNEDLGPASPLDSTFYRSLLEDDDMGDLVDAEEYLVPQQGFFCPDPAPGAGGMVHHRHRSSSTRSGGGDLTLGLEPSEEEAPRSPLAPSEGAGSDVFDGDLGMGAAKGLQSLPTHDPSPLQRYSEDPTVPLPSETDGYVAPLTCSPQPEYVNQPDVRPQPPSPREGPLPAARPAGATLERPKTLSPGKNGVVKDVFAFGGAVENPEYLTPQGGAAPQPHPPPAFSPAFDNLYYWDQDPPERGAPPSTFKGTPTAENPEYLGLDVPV

For `CC(=O)N(/N=C1\Sc2ccccc2C1=O)c1ccccc1C`, which IC50 [1] is on record?
Its IC50 is 3.46 µM (active).

What about the IC50 [2] of the same compound?
The IC50 was 5.13 µM (active).

Which IC50 [3] does the source give for `Cc1ccc(-n2sc3ccccc3c2=O)cc1` here?
Its IC50 is 7.04 µM (active) and 4.06 µM (active).

What about the IC50 [4] of the same compound?
Its IC50 is > 100 µM (inactive).

What does the source list for `Cc1cccc(NC(=O)Nc2ccc3c(c2)CCc2sc4ncnc(N)c4c2-3)c1`?
Ki [5]: 7.94 µM (active); Ki [6]: 2.51 µM (active); Ki [7]: 1.26 µM (active); Ki [8]: > 6.31 µM (inactive); Ki [9]: 3.16 µM (active); Ki [10]: > 7.94 µM (inactive); Ki [11]: > 1.58 µM (inactive); Ki [12]: > 7.94 µM (inactive); Ki [13]: > 7.94 µM (inactive); Ki [14]: > 7.94 µM (inactive); Ki [15]: 0.126 µM (active)
